{"source": "patent US20210207081A1", "about": "“MATURE AIRWAY ORGANOIDS, METHODS OF MAKING AND USES THEREOF” (priority 2018, published 2021)", "test_system": "H7N9/Ah virus", "type": "cell-based, Influenza A virus A/Anhui/1/2013(H7N9)", "data": [{"smiles": "NCCc1ccc(S(=O)(=O)F)cc1", "note": "[AEBSF]", "values": [{"measurement": "replication of H7N9/Ah virus", "result": "significantly restricted the active replication of H7N9/Ah virus"}]}]}
